According to ChEMBL document CHEMBL1155729, “Hydrachine A, a novel alkaloid from the roots of Hydrangea chinensis” (J Nat Prod, 2001):
Active and inactive are the calls of the source. The rule behind the calls is not given here.

What was measured:
HONE1 = assay: Cytotoxicity against human HONE1 cells; type: functional, cell-based
NUGC = assay: Cytotoxicity against human NUGC cells; type: functional, cell-based

For `O=C1C[C@@H]2[C@@H](O)CCCN2[C@H](n2cnc3ccccc3c2=O)C1`, the Activity (HONE1) was “inactive” and the Activity (NUGC) was “inactive”.

For `CC1(C)[C@@H](n2cnc3ccccc3c2=O)C(=O)C[C@@H]2[C@@H](O)CCCN21`, the Activity (HONE1) was “inactive” and the Activity (NUGC) was “inactive”.

`O=C(C[C@@H]1NCCC[C@H]1O)Cn1cnc2ccccc2c1=O` was tested, and the Activity (HONE1) was “inactive” and the Activity (NUGC) was “inactive”.
